What all share (type): in vivo
The subject of experiment [1] is rice brown planthopper. In words: Test Example 5: test diluent scattered on rice plant seedling, rice brown planthopper released. The note with it: Nilaparvata lugens, 144 h; 500 ppm, 10 ml scattered on rice plant seedling, 30 first-instars released, counted after six days at 25° C.; read-out: Control value. As for the experimental part: The formulations were diluted with water so that the concentration of the active ingredient became 500 ppm and thus test diluents were prepared. On the other hand, to a rice plant seedling (two weeks after seeding, second leaf development stage) planted in a plastic cup, any one of the diluents (10 ml) was scattered. After the drug solution scattered on the rice plant was dried, 30 first-instars of rice brown planthopper were released on the rice plant, which was kept in the green house at 25° C. for six days. Thereafter, the number of rice brown planthopper parasitic on rice plant was counted and the control value was calculated by the following equation. Control value(%)={1−(Cb×Tai)/(Cai×Tb)}×100 wherein each character represents the following meaning: Cb: number of insects in non-treated section before treatment Cai: number of insects in non-treated section during observation Tb: number of insects in treated section before treatment Tai: number of insects in treated section during observation

For experiment [2], the system named is rice brown planthopper. As to the kind of experiment: Test Example 6: plant foot irrigation of rice plant seedling, rice brown planthopper released after seven days. Conditions: Nilaparvata lugens, 144 h; 500 ppm, 5 ml plant foot irrigation of rice seedling; first-instars released after seven days, counted six days after; read-out: Control value. The method, then: The formulations were diluted with water so that the concentration of the active ingredient became 500 ppm and thus test diluents were prepared. On the other hand, a plant foot of rice plant seedling (two weeks after seeding, second leaf development stage) planted in a plastic cup was irrigated with any one of diluents (5 ml). The seedling was kept in a green house of 25° C. for seven days. Thirty first-instars of rice brown planthopper were released to the seedling, which was kept in the green house at 25 C for six days. Thereafter, the number of survived rice brown planthopper parasitic on rice plant leaves was counted, and the control value was calculated by the following equation. Control value(%)={1−(Cb×Tai)/(Cai×Tb)}×100 wherein each character represents the following meaning: Cb: number of insects in non-treated section before treatment Cai: number of insects in non-treated section during observation Tb: number of insects in treated section before treatment Tai: number of insects in treated section during observation

Experiment [3] deals with cotton aphids. In words: Test Example 3: plant foot irrigation of cucumber seedling in plastic cup, cotton aphids inoculated after seven days. The note with it: 144 h; 500 ppm, 5 ml plant foot irrigation, plastic cup; aphids inoculated after seven days at 25° C., counted six days after; read-out: Control value. The method, then:
(§1) The formulations were diluted with water so that the concentration of the active ingredient became 500 ppm and thus test diluents were prepared. On the other hand, a plant foot of cucumber seedling (second true leaf development stage) planted in a plastic cup was irrigated with any one of diluents (5 ml). The seedling was kept in a green house of 25° C. for seven days. The cucumber leaves were inoculated with 30 cotton aphids (all stages) and kept in the green house for further six days. Thereafter, the number of survived cotton aphids parasitic on the cucumber leaves was counted, and the control value was calculated by the following equation. Control value(%)={1−(Cb×Tai)/(Cai×Tb)}×100 wherein each character represents the following meaning: Cb: number of insects in non-treated section before treatment Cai: number of insects in non-treated section during observation Tb: number of insects in treated section before treatment Tai: number of insects in treated section during observation

The test system of the next experiment is tobacco whitefly. As to the kind of experiment: Test Example 4: test diluent scattered on tomato seedling with hatched tobacco whitefly larvae. The note with it: 168 h; 500 ppm, 10 ml/cup scattered on tomato seedling at larvae stage, counted after seven days at 25° C.; read-out: Control value. As for the experimental part:
The formulations were diluted with water so that the concentration of the active ingredient became 500 ppm and thus test diluents were prepared. On the other hand, by releasing tobacco whitefly imagos to a tomato seedling planted in a plastic cup to allow them to lay eggs for about 24 hours. The tomato seedling was kept in a green house for eight days. At the stage in which larvae hatched from the laid eggs, any of the test diluents was scattered at the rate of 10 ml/cup. The tomato seedling was kept in the greenhouse at 25° C. for seven days. The number of survived larvae on tomato leaves was counted, and the control value was calculated by the following equation. Control value(%)={1−(Cb×Tai)/(Cai×Tb)}×100 wherein each character represents the following meaning: Cb: number of insects in non-treated section before treatment Cai: number of insects in non-treated section during observation Tb: number of insects in treated section before treatment Tai: number of insects in treated section during observation

The subject of experiment [4] is cotton aphids (Aphis gossypii Glover). In words: Test Example 1: test diluent scattered on cucumber seedling inoculated with cotton aphids. Conditions: 120 h, 500 ppm active ingredient, 10 ml scattered on cucumber seedling, counted five days after scattering, read-out: Control value. The method, then:
The formulations were diluted with water so that the concentration of the active ingredient became 500 ppm and thus test diluents were prepared. On the other hand, a cucumber seedling (second true leaf development stage) planted in a plastic cup was inoculated with about 30 cotton aphids (Aphis gossypii Glover) and allowed to stand for one day. To the seedling, any one of the diluents (10 ml) was scattered. Five days after the scattering, the number of survived cotton aphids parasitic on the cucumber leaves was counted, and the control value was calculated by the following equation. Control value(%)={1−(Cb×Tai)/(Cai×Tb)}×100 wherein each character represents the following meaning: Cb: the number of insects in non-treated section before treatment Cai: the number of insects in non-treated section during observation Tb: the number of insects in treated section before treatment Tai: the number of insects in treated section during observation

Experiment [5] relates to cotton aphids. In words: Test Example 2: plant foot irrigation of cucumber seedling in urethane mat, cotton aphids inoculated one day after treatment. The note with it: 168 h; 500 ppm, 5 ml plant foot irrigation, urethane mat; aphids inoculated one day after treatment, counted seven days after; read-out: Control value. The method, then:
as §1, with “urethane mat” for “plastic cup”, “One day after the treatment, the” for “The seedling was kept in a green house of 25° C. for seven days. The”, “stages). Further seven days after,” for “stages) and kept in the green house for further six days. Thereafter,”

Molecules are shown by their SMILES.

As for `FC(F)(F)c1cnc2oc(-c3ccncc3Cl)nc2c1` [Active Compound 139, 2-(3-chloropyridin-4-yl)-6-(trifluoromethyl)oxazolo[5,4-b]pyridine], the pest or weed control at 500 ppm with rice brown planthopper [1] and in the experiment with rice brown planthopper [2] was no less than 90% each time.

For `FC(F)(F)c1cnc2oc(-c3ccncc3C(F)(F)F)nc2c1` [Active Compound 144, 6-trifluoromethyl-2-[3-(trifluoromethyl)pyridin-4-yl]-oxazolo[5,4-b]pyridine], the pest or weed control at 500 ppm in the experiment with cotton aphids [3] was no less than 90%.

Take `COc1cnccc1-c1nc2cc(C(F)(F)F)cnc2o1` [Active Compound 145, 2-(3-methoxypyridin-4-yl)-6-(trifluoromethyl)oxazolo[5,4-b]pyridine]: in the experiment on cotton aphids [3], the pest or weed control at 500 ppm was no less than 90%.

Take `CCCc1ccc2oc(-c3ccncc3)nc2c1` [active compound 1, 5-propyl-2-(pyridin-4-yl)-benzoxazole]: the pest or weed control at 500 ppm in the experiment with tobacco whitefly and with rice brown planthopper [1] was no less than 90% throughout.

Turning to `CC(C)(C)c1ccc2nc(-c3ccncc3)oc2c1` [active compound 8, 6-tert-butyl-2-(pyridin-4-yl)-benzoxazole], the pest or weed control at 500 ppm in the experiment with tobacco whitefly and in the experiment on rice brown planthopper [1] was no less than 90% in each case.

With `FC(F)(F)c1ccc2oc(-c3ccncc3-c3ccccc3)nc2c1` [active compound 32, 2-(3-phenylpyridin-4-yl)-5-(trifluoromethyl)benzoxazole], in the experiment with rice brown planthopper [1], the pest or weed control at 500 ppm is no less than 90%.

In the case of `C#Cc1cnccc1-c1nc2cc(C(F)(F)F)ccc2o1` [active compound 34, 2-(3-ethynylpyridin-4-yl)-5-(trifluoromethyl)benzoxazole], the pest or weed control at 500 ppm (in experiment [4]; with tobacco whitefly; in the experiment with rice brown planthopper [1]) was no less than 90% each time.

Take `FC(F)(F)CSc1cnccc1-c1nc2cc(C(F)(F)F)ccc2o1` [active compound 46, 2-[3-(2,2,2-trifluoroethylthio)pyridin-4-yl]-5-(trifluoromethyl)benzoxazole]: the pest or weed control at 500 ppm (in experiment [4]; with tobacco whitefly; in the experiment with rice brown planthopper [1]; in the experiment on rice brown planthopper [2]) was no less than 90% throughout.

Consider `Cc1cnn(-c2cnccc2-c2nc3cc(C(F)(F)F)ccc3o2)c1` [active compound 61, 2-[3-(4-methylpyrazole-1-yl)pyridin-4-yl]-5-(trifluoromethyl)benzoxazole], for which the pest or weed control at 500 ppm (in experiment [4]; with rice brown planthopper [1]) was no less than 90% in each case.

Turning to `FC(F)(F)C(F)(c1ccc2oc(-c3ccncc3)nc2c1)C(F)(F)F` [active compound 67, 2-(pyridin-4-yl)-5-(heptafluoroisopropyl)benzoxazole], the pest or weed control at 500 ppm with rice brown planthopper [1] is no less than 90%.

As for `COc1cnccc1-c1nc2cc3c(cc2o1)C(F)(F)OC3(F)F` [active compound 88, 5,5,7,7-tetrafluoro-2-(3-methoxypyridin-4-yl)-5,7-dihydro-furo[3′,4′:4,5]benzo[1,2-d]oxazole], the pest or weed control at 500 ppm (in experiment [4]; with cotton aphids [5]; in the experiment with tobacco whitefly; with rice brown planthopper [1]) was no less than 90% in each case.

`FC(F)(F)COc1cnccc1-c1nc2cc3c(cc2o1)C(F)(F)OC3(F)F` [active compound 89, 5,5,7,7-tetrafluoro-2-[3-(2,2,2-trifluoroethoxy)pyridin-4-yl]-5,7-dihydro-furo[3′,4′:4,5]benzo[1,2-d]oxazole]: the pest or weed control at 500 ppm (in experiment [4]; with tobacco whitefly; in the experiment on rice brown planthopper [1]) was no less than 90% throughout.

Take `CC(C)Oc1cnccc1-c1nc2cc3c(cc2o1)C(F)(F)OC3(F)F` [active compound 97, 5,5,7,7-tetrafluoro-2-(3-isopropoxypyridin-4-yl)-5,7-dihydro-furo[3′,4′:4,5]benzo[1,2-d]oxazole]: the pest or weed control at 500 ppm (in experiment [4]; in the experiment on tobacco whitefly; in the experiment with rice brown planthopper [1]; in the experiment with rice brown planthopper [2]) was no less than 90% throughout.

Take `CCc1cnccc1-c1nc2cc3c(cc2o1)C(F)(F)OC3(F)F` [active compound 98, 2-(3-ethylpyridin-4-yl)-5,5,7,7-tetrafluoro-5,7-dihydro-furo[3′,4′:4,5]benzo[1,2-d]oxazole]: the pest or weed control at 500 ppm (in experiment [4]; in the experiment on tobacco whitefly; in the experiment on rice brown planthopper [1]; in the experiment on rice brown planthopper [2]) was no less than 90% each time.

`CC(C)(C)c1ccc2oc(-c3ccncc3C(F)(F)F)nc2c1` [active compound 107, 5-tert-butyl-2-(3-trifluoromethylpyridin-4-yl)benzoxazole]: the pest or weed control at 500 ppm in the experiment with cotton aphids [5], in the experiment on tobacco whitefly, in the experiment on rice brown planthopper [1] and in the experiment with rice brown planthopper [2] was no less than 90% throughout.

Regarding `CCOCCOc1cnccc1-c1nc2cc(C(F)(F)F)ccc2o1` [active compound 122, 2-[3-(2-ethoxyethoxy)pyridin-4-yl]-5-(trifluoromethyl)benzoxazole], the pest or weed control at 500 ppm (in experiment [4]; in the experiment with tobacco whitefly; in the experiment on rice brown planthopper [1]) was no less than 90% each time.

Consider `CCCCCOc1cnccc1-c1nc2cc(C(F)(F)F)ccc2o1` [active compound 123, 2-(3-pentyloxypyridin-4-yl)-5-(trifluoromethyl)benzoxazole], for which the pest or weed control at 500 ppm in the experiment with tobacco whitefly and in the experiment on rice brown planthopper [1] was no less than 90% each time.

With `FC(F)Oc1cnccc1-c1nc2cc(C(F)(F)F)ccc2o1` [active compound 126, 2-(3-difluoromethoxypyridin-4-yl)-5-(trifluoromethyl)benzoxazole], the pest or weed control at 500 ppm (in experiment [4]; in the experiment on cotton aphids [5]; in the experiment with tobacco whitefly; in the experiment with rice brown planthopper [2]) was no less than 90% throughout.

`FC(F)(F)c1cnc2oc(-c3ccncc3)nc2c1` [active compound 138, 2-pyridin-4-yl-6-(trifluoromethyl)oxazolo[5,4-b]pyridine]: the pest or weed control at 500 ppm in the experiment on rice brown planthopper [1] is no less than 90%.

For the origin of these results see patent publication US8445522B2, “Substituted 2-(4-pyridyl)benzoxazoles, and compositions thereof, for use in arthropod pest control” (Sumitomo Chemical Company, Limited, priority 2009, dated 2013).
